Reference: patent US20230382926A1, “COMPOUNDS AND USES THEREOF” (The University of The West Indies, priority 2022, published 2023)

Assays:
Experiment in all cases: Rescue concentration, modified checkerboard MIC adjuvant assay
Format in all cases: cell-based
[1] = system: Enterococcus faecalis ATCC 51299; details: E. faecalis ATCC 51299
Procedure: (§1) Reference microorganisms as well as clinical strains used to evaluate the antimicrobial adjuvant properties of SP-6azaBIM 125 and SP-6azaBIM 136 are listed in Table 3. Clinical strains of bacteria were kindly provided by the Faculty of Medical Sciences, UWI, St. Augustine, Trinidad. All bacterial cultures were cryopreserved in 30% glycerol/Brain Heart Infusion (BHI) at −80° C. Cultures were revived on BHI agar (Oxoid Ltd, England) and maintained at 4° C. until needed.
(§2) Prior to each experiment, cultures were streaked onto clean BHI agar plates and incubated at 35° C. for 24 hours. Colonies of the respective cultures were selected and inoculated in phosphate buffer saline (pH 7.5) to a 0.5 McFarland turbidity standard (equivalent to 10^8 CFU mL^−1). For inhibitory studies the bacterial suspensions were diluted 1:100 in cation-adjusted Mueller Hinton Broth (ca-MHB) (Oxoid Ltd, England). Fastidious bacteria including Streptococcus pneumoniae, Haemophilus infuenzae and Clostridium difficile were maintained on BHI agar with 5% defibrinated sheep blood and diluted in ca-MHB with 5% defibrinated sheep blood.
(§3) Antibiotic powders used in this study were purchased from Sigma Aldrich Ltd. (WI, USA). Antibiotic stock solutions were made at 50 mg mL^−1 according to Andrews (2001) and working solutions were prepared 24 h before use and stored at 4° C.
(§4) HCl salts of the of the SP-azaBIM test compounds were prepared prior to testing and stored at 4° C. Working preparations of each compound were made to 1 mg/mL in sterile deionised water.
(§5) The antibiotic adjuvant activity of the SPazaBIMs were evaluated in combination with representative antibiotics (representing 13 antibiotic classes) against the 19 pathogens strains listed in Table 3. To assess the adjuvant properties of the SP-azaBIM molecules, a modified checkerboard minimum inhibitory concentration assay was used. A fixed concentration of the respective antibiotic (susceptible breakpoint concentration) was mixed with a twofold dilution series of the test SP-azaBIM (FIG. 1). This was to determine the concentration of SP-azaBIM needed potentiate the antibiotic at a clinically susceptible breakpoint concentration. Antibiotic susceptible breakpoint concentrations for the respective bacteria were determined using Clinical Laboratory Standards Institute (CLSI) criteria M100 ED31.
(§6) In this study, only those antibiotics to which the bacterial was classed as resistant were included in the adjuvant assays. In this assay we recorded the rescue concentration of the SP-BIM for a respective antibiotic. The rescue concentration was defined as the concentration of the adjuvant that reduces the minimum inhibitory concentration (MIC) of an antibiotic to the susceptibility breakpoint.
(§7) Immediately prior to testing, the respective antibiotic and SP-azaBIM was dissolved in sterile deionised water at 20× the required test concentration. Each microtiter well was then inoculated with 180 μl of bacterial inoculum of 10^6 CFU/ml in ca-MHB, and 10 μl each if the antibiotic and SP-azaBIM was added to the plates. These plates were then incubated at 35° C. for 24 h under aerobic conditions. A similar method was followed for the fastidious pathogens except that they were cultured in ca-MHB with 5% sheep blood and 5% CO2.
(§8) Bacterial growth was visually inspected after the incubation period and the rescue concentration of the test SP-azaBIM was determined as the lowest concentration of the compound needed to reduce bacterial growth by 99.99% at the susceptible breakpoint concentration of the antibiotic. For example, CLSI states that Pseudomonas aeruginosa is susceptible to the Imipenem if the MIC is ≤2 μg mL^−1. If the bacteria can tolerate this concentration in vitro, then the bacteria has an intermediate or absolute resistance toward that antibiotic. […]

[2] = system: Stenotrophomonas maltophilia MDR 7785; details: S. maltophilia MDR 7785
Procedure: as §1, §2, §3, §4, §5, §6, §7, §8

[3] = system: Acinetobacter baumannii clinical isolate 9978; details: A. baumannii clinical isolate 9978
Procedure: as §1, §2, §3, §4, §5, §6, §7, §8

[4] = system: Escherichia coli ATCC 35150; details: E. coli ATCC 35150
Procedure: as §1, §2, §3, §4, §5, §6, §7, §8

[5] = system: Klebsiella pneumoniae ATCC 49472; details: K. pneumoniae ATCC 49472
Procedure: as §1, §2, §3, §4, §5, §6, §7, §8

[6] = system: Pseudomonas aeruginosa MDR 5805; details: P. aeruginosa MDR 5805
Procedure: as §1, §2, §3, §4, §5, §6, §7, §8

[7] = system: Staphylococcus aureus ATCC BAA-2312; details: S. aureus ATCC BAA-2312
Procedure: as §1, §2, §3, §4, §5, §6, §7, §8

[8] = system: Streptococcus pneumoniae ATCC 49619; details: S. pneumoniae ATCC 49619
Procedure: as §1, §2, §3, §4, §5, §6, §7, §8

[9] = system: Enterobacter cloacae ATCC BAA-1143; details: E. cloacae ATCC BAA-1143
Procedure: as §1, §2, §3, §4, §5, §6, §7, §8

[10] = Amp at susceptible breakpoint 8 μg mL^−1
[11] = Chl at susceptible breakpoint 8 μg mL^−1
[12] = Dox at susceptible breakpoint 4 μg mL^−1
[13] = Tri at susceptible breakpoint 8 μg mL^−1
[14] = Cef at susceptible breakpoint 8 μg mL^−1
[15] = Ceph at susceptible breakpoint 8 μg mL^−1
[16] = Gen at susceptible breakpoint 4 μg mL^−1
[17] = Imi at susceptible breakpoint 2 μg mL^−1
[18] = Mero at susceptible breakpoint 2 μg mL^−1
[19] = Amox at susceptible breakpoint 8 μg mL^−1
[20] = Col at susceptible breakpoint 2 μg mL^−1
[21] = Pol B at susceptible breakpoint 2 μg mL^−1
[22] = Col at susceptible breakpoint 8 μg mL^−1
[23] = Imi at susceptible breakpoint 1 μg mL^−1

Brc1ccc(C(c2c[nH]c3cnccc23)c2c[nH]c3cnccc23)cc1 [SP-6azaBIM 125, 3,3′-((4-bromophenyl)methylene)bis(1H-pyrrolo[2,3-c]pyridine)]
2 µg/mL: Rescue concentration, Cip (2) ([2]; Cip at susceptible breakpoint 2 μg mL^−1) | Rescue concentration, Cef (8) [3, 14] | Rescue concentration, Gen (4) [3, 16] | Rescue concentration, Col (8) [4, 22] | Rescue concentration, Imi (1) [5, 23]
32 µg/mL: Rescue concentration, Dox (4) [4, 12] | Rescue concentration, Amp (8) [9, 10]
8 µg/mL: Rescue concentration, Cef (8) [2, 14] | Rescue concentration, Ceph (8) [2, 15] | Rescue concentration, Gen (4) [2, 16] | Rescue concentration, Mero (2) [3, 18] | Rescue concentration, Cip (0.25) ([4]; Cip at susceptible breakpoint 0.25 μg mL^−1)
16 µg/mL: Rescue concentration, Imi (2) [2, 17] | Rescue concentration, Amox (8) [3, 19] | Rescue concentration, Pol B (2) [3, 21] | Rescue concentration, Amp (8) [5, 10] | Rescue concentration, Gen (4) [6, 16]
>128 µg/mL: Rescue concentration, Amp (8) [1, 10] | Rescue concentration, Chl (8) [1, 11] | Rescue concentration, Dox (4) [1, 12] | Rescue concentration, Ery (0.5) ([1]; Ery at susceptible breakpoint 0.5 μg mL^−1) | Rescue concentration, Tri (8) [1, 13] | Rescue concentration, Van (4) ([1]; Van at susceptible breakpoint 4 μg mL^−1) | Rescue concentration, Col (2) [6, 20] | Rescue concentration, Imi (2) [6, 17] | Rescue concentration, Mero (2) [6, 18] | Rescue concentration, Pol B (2) [6, 21] | Rescue concentration, Azi (2) ([7]; Azi at susceptible breakpoint 2 μg mL^−1) | Rescue concentration, Pen (0.12) ([7]; Pen at susceptible breakpoint 0.12 μg mL^−1) | Rescue concentration, Tri (8) [7, 13] | Rescue concentration, Van (2) ([7]; Van at susceptible breakpoint 2 μg mL^−1) | Rescue concentration, Amox (2) ([8]; Amox at susceptible breakpoint 2 μg mL^−1) | Rescue concentration, Ery (0.25) ([8]; Ery at susceptible breakpoint 0.25 μg mL^−1) | Rescue concentration, Imi (0.12) ([8]; Imi at susceptible breakpoint 0.12 μg mL^−1) | Rescue concentration, Azi (16) ([9]; Azi at susceptible breakpoint 16 μg mL^−1) | Rescue concentration, Ceph (8) [9, 15] | Rescue concentration, Chl (8) [9, 11] | Rescue concentration, Col (8) [9, 22] | Rescue concentration, Dox (4) [9, 12] | Rescue concentration, Gen (4) [9, 16] | Rescue concentration, Imi (1) [9, 23] | Rescue concentration, Tet (4) ([9]; Tet at susceptible breakpoint 4 μg mL^−1)
64 µg/mL: Rescue concentration, Tri (2) ([2]; Tri at susceptible breakpoint 2 μg mL^−1) | Rescue concentration, Gen (4) [7, 16]
4 µg/mL: Rescue concentration, Chl (8) [2, 11] | Rescue concentration, Mero (2) [2, 18] | Rescue concentration, Col (2) [3, 20] | Rescue concentration, Imi (2) [3, 17] | Rescue concentration, Imi (1) [4, 23] | Rescue concentration, Amox (8) [5, 19] | Rescue concentration, Col (8) [5, 22] | Rescue concentration, Mero (1) ([5]; Mero at susceptible breakpoint 1 μg mL^−1) | Rescue concentration, Pol B (8) ([5]; Pol B at susceptible breakpoint 8 μg mL^−1)
128 µg/mL: Rescue concentration, Amox (8) [6, 19]
